{"source": "patent US20250313546A1", "about": "“NUCLEIC ACID BINDERS” (UNIVERSITY OF STRATHCLYDE, priority 2022, published 2025)", "key": {"Scedosporium spp.": {"tested_on": "Scedosporium spp.", "assay": "Expanded set of filamentous fungi, MIC broth microdilution (CLSI)", "format": "cell-based"}, "Fusarium oxysporum": {"tested_on": "Fusarium oxysporum", "assay": "Expanded set of filamentous fungi, MIC broth microdilution (CLSI)", "format": "cell-based", "conditions": "MIC at 50% inhibition"}, "C. auris": {"tested_on": "C. auris", "assay": "Expanded set of yeasts, MIC broth microdilution (CLSI)", "format": "cell-based", "conditions": "MIC at 50% inhibition"}, "[1]": {"tested_on": "Enterococcus faecalis (ATCC 51299)", "assay": "Antibacterial MIC, broth microdilution (CLSI)", "format": "cell-based", "conditions": "Enterococcus faecalis, ATCC51299; read-out: MIC80 E. faecalis"}, "A. flavus (CBS 128.202)": {"tested_on": "A. flavus (CBS 128.202)", "conditions": "Aspergillus flavus, CBS128, read-out: MIC99 A. flavus", "protocol": "(§2) The Minimum Inhibitory Concentration (MIC, at 99% inhibition) of the compounds was determined using the broth microdilution method as recommended by EUCAST (EUCAST Definitive Document E.DEF 9.3.2, Method for the determination of broth dilution minimum inhibitory concentrations of antifungal agents for conidia forming moulds and EUCAST Definitive Document E.DEF 7.3.2 Method for the determination of broth dilution minimum inhibitory concentrations of antifungal agents for yeasts)."}, "[2]": {"tested_on": "Escherichia coli (ATCC 25922)", "assay": "Antibacterial MIC, broth microdilution (CLSI)", "format": "cell-based", "conditions": "Escherichia coli, ATCC25922; read-out: MIC80 E. coli"}, "Candida parapsilosis": {"tested_on": "Candida parapsilosis", "assay": "Expanded set of yeasts, MIC broth microdilution (CLSI)", "format": "cell-based", "conditions": "MIC at 50% inhibition; for MIC50: Lodderomyces parapsilosis"}, "[3]": {"tested_on": "Staphylococcus aureus (ATCC 43300)", "assay": "Antibacterial MIC, broth microdilution (CLSI)", "format": "cell-based", "conditions": "Staphylococcus aureus, ATCC43300; read-out: MIC80 S. aureus"}, "[4]": {"tested_on": "Candida glabrata (ACPF3309)", "conditions": "Nakaseomyces glabratus, read-out: MIC99 Candida glabrata"}, "Fusarium solani": {"tested_on": "Fusarium solani", "assay": "Expanded set of filamentous fungi, MIC broth microdilution (CLSI)", "format": "cell-based", "conditions": "MIC at 50% inhibition"}, "Aspergillus fumigatus": {"tested_on": "Aspergillus fumigatus", "assay": "Expanded set of filamentous fungi, MIC broth microdilution (CLSI)", "format": "cell-based"}, "Blastomyces dermatitidis": {"tested_on": "Blastomyces dermatitidis", "assay": "Expanded set of filamentous fungi, MIC broth microdilution (CLSI)", "format": "cell-based"}, "C. krusei": {"tested_on": "C. krusei", "assay": "Expanded set of yeasts, MIC broth microdilution (CLSI)", "format": "cell-based", "conditions": "Pichia kudriavzevii, ATCC6258; isolate ATCC 6258; MIC at 50% inhibition"}, "[5]": {"tested_on": "Scedosporium prolificans (F2746)", "conditions": "Lomentospora prolificans, read-out: MIC99 Scedosporium prolificans", "protocol": "as §2"}, "Lomentospora prolificans": {"tested_on": "Lomentospora prolificans", "assay": "Expanded set of filamentous fungi, MIC broth microdilution (CLSI)", "format": "cell-based", "conditions": "isolate S2, MIC at 50% inhibition"}, "C. albicans": {"tested_on": "C. albicans", "assay": "Expanded set of yeasts, MIC broth microdilution (CLSI)", "format": "cell-based", "conditions": "MIC at 50% inhibition; for MIC50: Candida albicans"}, "[6]": {"tested_on": "Genomic double stranded DNA (salmon)", "assay": "Fluorescence intercalator displacement (FID) assay, SYBR-safe probe", "conditions": "20 μM compound, 30° C., lower % = stronger binding", "procedure,_shortened": "(§1)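 Probe displacement was measured at 30 °C in 1 mM phosphate pH 7.4 containing SybrSafe (12500-fold dilution), 3.76 ng/mL nucleic acid (salmon dsDNA or polyAU dsRNA) and 20 μM compound. Fluorescence loss is normalised between probe-only and probe-plus-nucleic-acid controls.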"}, "[7]": {"tested_on": "PolyAU double stranded RNA", "assay": "Fluorescence intercalator displacement (FID) assay, SYBR-safe probe", "conditions": "20 μM compound, 30° C., lower % = stronger binding", "procedure,_shortened": "as §1"}, "Paecilomyces variotii": {"tested_on": "Paecilomyces variotii", "assay": "Expanded set of filamentous fungi, MIC broth microdilution (CLSI)", "format": "cell-based", "conditions": "isolate MYA-3630, MIC at 50% inhibition"}, "[8]": {"tested_on": "Rhizopus arrhizus (NEQAS12.35321)", "conditions": "read-out: MIC99 Rhizopus arrhizus"}, "C. neoformans (F10025)": {"tested_on": "C. neoformans (F10025)", "conditions": "Cryptococcus neoformans, read-out: MIC99 C. neoformans", "protocol": "as §2"}}, "note": "Where two headings read alike, the source gives them in different places."}
{"smiles": "C/N=C(\\CCNC(=O)c1cc(NC(=O)c2cc(NC(=O)c3ccc(/C=C/c4ccc(N(C)C)cc4)nc3)cn2C)cn1C)NC", "note": "[Ia8, 6-((E)-4-(dimethylamino)styryl)-N-(1-methyl-5-((1-methyl-5-(((E)-3-(methylamino)-3-(methylimino)propyl)carbamoyl)-1H-pyrrol-3-yl)carbamoyl)-1H-pyrrol-3-yl)nicotinamide]", "values": [{"measurement": "MIC50", "setting": "Scedosporium spp.; isolate S1, MIC at 50% inhibition", "result": "1 to 8", "unit": "µg/mL"}, {"measurement": "MIC50", "setting": "Scedosporium spp.; isolate S3, MIC at 50% inhibition", "result": "1 to 8", "unit": "µg/mL"}, {"measurement": "MIC50", "setting": "Fusarium oxysporum; Fusarium oxysporum, isolate F2", "result": "≤ 1", "unit": "µg/mL"}, {"measurement": "MIC50 Fusarium oxysporum", "setting": "Fusarium oxysporum; isolate F3", "result": "*** (*** means MIC50 <= 1 μg/mL)"}, {"measurement": "MIC50", "setting": "C. auris; Candidozyma auris, isolate DI17-47", "result": "1 to 8", "unit": "µg/mL"}, {"measurement": "MIC50 C. auris", "setting": "C. auris; isolate DI17-46", "result": "** (** means 1 μg/mL < MIC50 <= 8 μg/mL)"}, {"measurement": "MIC50 C. auris", "setting": "C. auris; isolate DI17-48", "result": "** (** means 1 μg/mL < MIC50 <= 8 μg/mL)"}, {"measurement": "MIC80", "setting": "[1]", "result": "25 to 100", "unit": "µM"}, {"measurement": "MIC99", "setting": "A. flavus (CBS 128.202)", "result": "< 5", "unit": "µg/mL"}, {"measurement": "MIC80", "setting": "[2]", "result": "> 100", "unit": "µM"}, {"measurement": "MIC50", "setting": "Candida parapsilosis; ATCC22019, isolate ATCC 22019, read-out: MIC50 Candida parapsilosis", "result": "1 to 8", "unit": "µg/mL"}, {"measurement": "MIC50", "setting": "Candida parapsilosis; isolate CP1, read-out: MIC50 C. parapsilosis", "result": "1 to 8", "unit": "µg/mL"}, {"measurement": "MIC50 C. parapsilosis", "setting": "Candida parapsilosis; isolate CP2", "result": "** (** means 1 μg/mL < MIC50 <= 8 μg/mL)"}, {"measurement": "MIC50 C. parapsilosis", "setting": "Candida parapsilosis; isolate CP3", "result": "** (** means 1 μg/mL < MIC50 <= 8 μg/mL)"}, {"measurement": "MIC80", "setting": "[3]", "result": "5 to 25", "unit": "µM"}, {"measurement": "MIC99", "setting": "[4]", "result": "5 to 25", "unit": "µg/mL"}, {"measurement": "MIC50", "setting": "Fusarium solani; Fusarium solani, isolate F4", "result": "≤ 1", "unit": "µg/mL"}, {"measurement": "MIC50 Fusarium solani", "setting": "Fusarium solani; isolate DI19-284", "result": "*** (*** means MIC50 <= 1 μg/mL)"}, {"measurement": "MIC50", "setting": "Aspergillus fumigatus; isolate AF293, MIC at 50% inhibition", "result": "1 to 8", "unit": "µg/mL"}, {"measurement": "MIC50", "setting": "Aspergillus fumigatus; isolate DI15-106, MIC at 50% inhibition", "result": "1 to 8", "unit": "µg/mL"}, {"measurement": "MIC50", "setting": "Aspergillus fumigatus; isolate DI15-116, MIC at 50% inhibition", "result": "1 to 8", "unit": "µg/mL"}, {"measurement": "MIC50", "setting": "Aspergillus fumigatus; isolate DI19-187, MIC at 50% inhibition", "result": "1 to 8", "unit": "µg/mL"}, {"measurement": "MIC50", "setting": "Aspergillus fumigatus; isolate DI19-230, MIC at 50% inhibition", "result": "1 to 8", "unit": "µg/mL"}, {"measurement": "MIC50", "setting": "Aspergillus fumigatus; isolate DI19-231, MIC at 50% inhibition", "result": "1 to 8", "unit": "µg/mL"}, {"measurement": "MIC50", "setting": "Aspergillus fumigatus; isolate DI19-232, MIC at 50% inhibition", "result": "1 to 8", "unit": "µg/mL"}, {"measurement": "MIC50", "setting": "Aspergillus fumigatus; isolate DI19-233, MIC at 50% inhibition", "result": "1 to 8", "unit": "µg/mL"}, {"measurement": "MIC50", "setting": "Aspergillus fumigatus; isolate DI19-234, MIC at 50% inhibition", "result": "1 to 8", "unit": "µg/mL"}, {"measurement": "MIC50", "setting": "Aspergillus fumigatus; isolate DI19-236, MIC at 50% inhibition", "result": "1 to 8", "unit": "µg/mL"}, {"measurement": "MIC50", "setting": "Aspergillus fumigatus; isolate DI19-237, MIC at 50% inhibition", "result": "1 to 8", "unit": "µg/mL"}, {"measurement": "MIC50", "setting": "Aspergillus fumigatus; isolate DI20-95, MIC at 50% inhibition", "result": "1 to 8", "unit": "µg/mL"}, {"measurement": "MIC50", "setting": "Aspergillus fumigatus; isolate DI20-103, MIC at 50% inhibition", "result": "1 to 8", "unit": "µg/mL"}, {"measurement": "MIC50", "setting": "Blastomyces dermatitidis; isolate BD1, MIC at 50% inhibition", "result": "1 to 8", "unit": "µg/mL"}, {"measurement": "MIC50", "setting": "Blastomyces dermatitidis; isolate BD2, MIC at 50% inhibition", "result": "1 to 8", "unit": "µg/mL"}, {"measurement": "MIC50", "setting": "Blastomyces dermatitidis; isolate BD3, MIC at 50% inhibition", "result": "1 to 8", "unit": "µg/mL"}, {"measurement": "MIC50", "setting": "C. krusei", "result": "1 to 8", "unit": "µg/mL"}, {"measurement": "MIC99", "setting": "[5]", "result": "5 to 25", "unit": "µg/mL"}, {"measurement": "MIC50", "setting": "Lomentospora prolificans", "result": "1 to 8", "unit": "µg/mL"}, {"measurement": "MIC50", "setting": "C. albicans; isolate CA3", "result": "1 to 8", "unit": "µg/mL"}, {"measurement": "MIC50", "setting": "C. albicans; isolate SC5314", "result": "1 to 8", "unit": "µg/mL"}, {"measurement": "MIC50 C. albicans", "setting": "C. albicans; isolate CA90028", "result": "** (** means 1 μg/mL < MIC50 <= 8 μg/mL)"}, {"measurement": "% Normalised Fluorescence with gDNA", "setting": "[6]", "result": 4, "unit": "%"}, {"measurement": "% Normalised Fluorescence with polyAU RNA", "setting": "[7]", "result": 9, "unit": "%"}, {"measurement": "MIC50", "setting": "Paecilomyces variotii", "result": "1 to 8", "unit": "µg/mL"}, {"measurement": "MIC99", "setting": "[8]", "result": "5 to 25", "unit": "µg/mL"}, {"measurement": "MIC99", "setting": "C. neoformans (F10025)", "result": "5 to 25", "unit": "µg/mL"}]}
